From patent US9320736B2, “Zinc chelating agents for depleting XIAP and sensitizing tumor cells to apoptosis” (Institute for Cancer Research, priority 2012, dated 2016)
Entries after “also recorded” stand apart in the source; their conditions may differ.

Assays:
XIAP [1] = experiment: XIAP depletion in PC-3 cells by Western blot / immunoblotting; format: cell-based, human; details: for XIAP depletion (Western blot): chelator 50 μM, 4 hours, FIG. 3/4; for depletion of XIAP compared with TPEN: prostate cancer cells
Procedure: PC-3 cells were cultured in medium alone, or in the presence of PPIX (50 μM) for 4 hours, or 5-Ala (250 μM) for 24 hours. Expression of XIAP and GAPDH (control) was detected by immunoblotting with an antibody to XIAP or GADPH, respectively.
Cell Lines and Culture Conditions. A PC-3 castration-resistant prostate cancer cell line was obtained from the American Type and Culture Collection (Rockville, Md.). PC-3 cells were maintained in complete cell culture medium (RPMI 1640 medium (Bio-Whittaker, Walkersville, Md.) supplemented with 10% FCS (Hyclone, Logan, Utah), gentamicin (50 mg/L), sodium pyruvate (1 mM) and non-essential amino acids (0.1 mM)).
Analysis of XIAP Depletion in PC-3 Cell Line Following Administration of Heterocyclic Zn Chelators. PC-3 cells were cultured under three distinct conditions; medium alone, with administration of TPEN (8 μM) as a positive control for 2 hours, and with administration of an individual Zn chelators (MR) (50 μM) for 4 hours.
Western blot analysis was performed to assess for level of XIAP depletion. Whole cell lysates were prepared as described previously (Kolenko V et al. (1999) J. Immunol. 163: 590-8). Protein concentrations were measured with BCA protein assay reagents (Pierce, Rockford, Ill.). Equivalent amounts of proteins (20 μg) were mixed with an equal volume of 2× Laemmli sample buffer, boiled and resolved by electrophoresis in 10% sodium dodecyl sulfate-polyacrylamide gels (SDS-PAGE). The proteins were transferred from the gel to a nitrocellulose membrane using an electroblotting apparatus (Bio-Rad) (15 V, 3 mA/cm2 for 24 minutes).
Membranes were then incubated in a blocking solution containing 5% nonfat dry milk overnight to inhibit nonspecific binding. The membranes were then incubated with specific antibody (1-3 μg/ml) for 2 hours. After washing in TRIS/0.1% Tween 20 for 30 minutes, membranes were incubated for another 30 minutes with horseradish peroxidase-conjugated secondary antibody. The membranes were then washed and developed with enhanced chemiluminescence (ECL Western Blotting Kit, Amersham, Arlington Heights, Ill.).

PC-3 cells = experiment: TRAIL-mediated apoptosis in PC-3 cells (DNA fragmentation assay); format: cell-based, human; details: chelator combined with TRAIL, FIG. 4
[2] = test system: cIAP1, cIAP2 and surviving; experiment: Expression of other zinc-containing IAP family members in TPEN-treated cells; format: cell-based
From the text: (§1) The inhibition of XIAP expression is selective, as TPEN has no effect on the expression levels of other zinc-containing members of IAP family, i.e., cIAP1, cIAP2 and surviving. As well, the XIAP mRNA level is not reduced in TPEN-treated cells. Therefore, zinc chelation by TPEN induces depletion of XIAP specifically at the protein level. […] Importantly, the sensitization to therapeutic agents is specific to malignant but not to benign cells. This cytotoxic specificity for malignant cells is consistent with experiments showing that XIAP is preferentially degraded in malignant but not in benign cells upon zinc chelation and stems from blunted regulation of zinc uptake transporters upon carcinogenesis.

XIAP mRNA = XIAP mRNA level in TPEN-treated cells; format: cell-based
From the text: as §1

XIAP [3] = experiment: XIAP protein levels in xenograft animal model of human prostate cancer; format: in vivo
From the text: as §1

malignant cells = experiment: Potentiation of therapeutic agents by TPEN in malignant cells; format: cell-based; details: specific to malignant, not benign cells
From the text: as §1

XIAP [4] = details: human prostate cancer cells; Makhov et al. 2008; cited from earlier work
PC-3 tumors = experiment: PC-3 tumor growth in ectopic xenograft mouse model of prostate cancer; format: in vivo; details: 5-Ala ip 10 mg/mouse daily combined with HGS-ETR1 iv 0.25 mg/mouse once a week, PC-3 tumors in male C.B17/Icr-scid mice, FIG. 2
Procedure: PC-3 tumors were established in male C.B17/Icr-scid mice. When tumor volumes reach approximately 200 mm^3, the animals were grouped (n=5 for each group) and treated with saline (control), an ip injection of 5-Ala (10 mg/mouse, daily) and/or an iv injection of HGS-ETR1 (0.25 mg/mouse once a week).

[5] = Intravenous tolerability in C.B17/Icr-scid mice; format: in vivo; details: two 6 week-old male C.B17/Icr-scid mice, iv 100 μl at 15 mM
Procedure: Animal Studies. Two 6 week-old male C.B17/Icr-scid mice were injected intravenously with 100 μl of MR13 chelator at final concentration of 15 mM.

Row | Structure (SMILES) | XIAP depletion (Western blot) (XIAP [1]; PC-3 cells) | promotion of TRAIL-mediated cell death / apoptotic response (PC-3 cells) | depletion of XIAP compared with TPEN (XIAP [1]) | also measured
1 | O=S(=O)(Nc1ccccc1-c1nc2ccccc2[nH]1)c1ccc(F)cc1 [MR66] | failed to induce XIAP depletion | did not succeeded in producing an apoptotic response |  | 
2 | N#Cc1ccc(S(=O)(=O)Nc2cccc3cccnc23)cc1 [MR44] | completely depleted XIAP | promoted TRAIL-mediated cell death | at least as effectively as TPEN | 
3 | O=S(=O)(Nc1ccccc1-c1nc2ccccc2[nH]1)c1c(F)cccc1F [MR96] | failed to induce XIAP depletion | did not succeeded in producing an apoptotic response |  | 
4 | c1ccc(CN(CCN(Cc2ccccn2)Cc2ccccn2)Cc2ccccn2)nc1 [TPEN, N,N,N′,N′-tetrakis(2-pyridylmethyl)-ethylenediamine] |  |  |  | effect on expression levels of other zinc-containing IAP family members [2]: no effect; XIAP mRNA level (XIAP mRNA): not reduced; XIAP protein levels in vivo (XIAP [3]): rapid decrease of XIAP protein levels; potentiation of the action of HGS-ETR1 (mapatumumab) and docetaxel (malignant cells): markedly potentiated; depletion of XIAP (XIAP [4]): selective and rapid depletion; also recorded: rapidly depletes XIAP
5 | NCC(=O)CCC(=O)O [5-Ala, 5-aminolevulinic acid, reference compound] |  |  |  | XIAP expression (immunoblot) (XIAP [1]; PC-3 cells, 5-Ala 250 μM, 24 hours, FIG. 1): reduces XIAP levels; also recorded: significantly reduced XIAP expression; tumor growth / antitumor effect (PC-3 tumors): augments HGS-ETR1 the antitumor effect; tumor growth / antitumor effect (PC-3 tumors; listed as 5-ALA): completely arrested tumor growth
6 | O=S(=O)(Nc1cccc2cccnc12)c1ccc(F)c(Cl)c1 [MR13] | completely depleted XIAP | promoted TRAIL-mediated cell death | at least as effectively as TPEN | tolerability of intravenous administration [5]: well tolerated
